Test system: skin blood flow after saphenous nerve stimulation (CGRP release)
Assay: Skin vasodilatation induced by stimulation of rat saphenous nerve
Type: in vivo
Conditions: 400 nmol/kg i.v., 3-5 minutes before stimulation, vs control
Method: To test antagonist activity of anti-CGRP antibodies, effect of the antibodies on skin vasodilatation by stimulation of rat saphenous nerve was tested using a rat model described previously. Escott et al., Br. J. Pharmacol. 110:772-776, 1993. In this rat model, electrical stimulation of saphenous nerve induces release of CGRP from nerve endings, resulting in an increase in skin blood flow. Blood flow in the foot skin of male Sprague Dawley rats (170-300 g, from Charles River Hollister) was measured after saphenous nerve stimulation. Rats were maintained under anesthesia with 2% isoflurane. Bretylium tosylate (30 mg/kg, administered i.v.) was given at the beginning of the experiment to minimize vasoconstriction due to the concomitant stimulation of sympathetic fibers of the saphenous nerve. […]
For experiments shown in FIGS. 2A and 2B, antibody 4901 (25 mg/kg), antibody 7D11 (25 mg/kg), or vehicle control (PBS with 0.01% Tween 20) was administered intraperitoneally (IP) 72 hours before the electrical pulse stimulation. […] Skin blood flow, measured as blood cell flux, was monitored with a laser Doppler flow meter. […]
For experiments shown in FIGS. 4A and 4B, saphenous nerve was exposed surgically before antibody administration. […] Skin blood flow, measured as blood cell flux, was monitored with a laser Doppler flow meter. […]

CGRP 8-37: Positive control compound CGRP 8-37 (vasodilatation antagonist)
blood flow increase stimulated by electronic pulses on saphenous nerve (AUC of blood cell flux): inhibited

From patent US20190071490A1, “Preventing Post-Ictal Headaches” (Beth Israel Deaconess Medical Center, Inc., priority 2017, published 2019)
